Consider 20 compounds from patent publication US20230340011A1 (Asteroid Therapeutics, priority 2022, published 2023).

SMILES strings stand for the structures. A value given as a limit tells only on which side of the number the result lay.

The target of this assay is SREBP-2 (Homo sapiens (Human), UniProt Q12772). Description: In vitro assay SREBP-2: PathHunter U2OS SREBP-2 Nuclear Translocation Cell Line, U18666A-stimulated. The class given is cell-based. The note with it: PathHunter U2OS SREBP-2 nuclear translocation cells, U18666A 10 μM, overnight (16 hours).
As to `C[C@H](CCC(=O)N1CCC(O)(c2ccncc2)CC1)[C@H]1CC[C@H]2[C@@H]3CC=C4C[C@@H](O)CC[C@]4(C)[C@H]3CC[C@]12C` [Example 344, (R)-4-((3S,8S,9S,10R,13R,14S,17R)-3-hydroxy-10,13-dimethyl-2,3,4,7,8,9,10,11,12,13,14,15,16,17-tetradecahydro-1H-cyclopenta[a]phenanthren-17-yl)-1-(4-hydroxy-4-(pyridin-4-yl)piperidin-1-yl)pentan-1-one], the IC50 (commonly the concentration that gives 50% inhibition) was below 250 nM.
As for `C[C@H](CCC(=O)N(C)OCCCC(F)(F)F)[C@H]1CC[C@H]2[C@@H]3CC=C4C[C@@H](O)CC[C@]4(C)[C@H]3CC[C@]12C` [Example 32, (R)-4-((3S,8S,9S,10R,13R,14S,17R)-3-hydroxy-10,13-dimethyl-2,3,4,7,8,9,10,11,12,13,14,15,16,17-tetradecahydro-1H-cyclopenta[a]phenanthren-17-yl)-N-methyl-N-(4,4,4-trifluorobutoxy)pentanamide], the figure is 250 to 1000 nM; as for `Cc1ccncc1O[C@@H](C)[C@H]1CC[C@H]2[C@@H]3CC=C4C[C@@H](O)CC[C@]4(C)[C@H]3CC[C@]12C` [Example 433, (3S,8S,9S,10R,13S,14S,17S)-10,13-dimethyl-17-((S)-1-((4-methylpyridin-3-yl)oxy)ethyl)-2,3,4,7,8,9,10,11,12,13,14,15,16,17-tetradecahydro-1H-cyclopenta[a]phenanthren-3-ol], 250 to 1000 nM; as for `C[C@H](CCC(=O)N1CC[C@H](NC(=O)N(C)C)C1)[C@H]1CC[C@H]2[C@@H]3CC=C4C[C@@H](O)CC[C@]4(C)[C@H]3CC[C@]12C` [Example 534, 3-((S)-1-((R)-4-((3S,8S,9S,10R,13R,14S,17R)-3-hydroxy-10,13-dimethyl-2,3,4,7,8,9,10,11,12,13,14,15,16,17-tetradecahydro-1H-cyclopenta[a]phenanthren-17-yl)pentanoyl)pyrrolidin-3-yl)-1,1-dimethylurea], below 250 nM.
For the compound `C[C@H](COc1cccc(CO)n1)[C@H]1CC[C@H]2[C@@H]3CC=C4C[C@@H](O)CC[C@]4(C)[C@H]3CC[C@]12C` [Example 444, (3S,8S,9S,10R,13S,14S,17R)-17-((S)-1-((6-(hydroxymethyl)pyridin-2-yl)oxy)propan-2-yl)-10,13-dimethyl-2,3,4,7,8,9,10,11,12,13,14,15,16,17-tetradecahydro-1H-cyclopenta[a]phenanthren-3-ol], the IC50 is below 250 nM.
Consider `Cc1cccc(OC[C@@H](C)[C@H]2CC[C@H]3[C@@H]4CC=C5C[C@@H](O)CC[C@]5(C)[C@H]4CC[C@]23C)n1` [Example 440, (1R,3aS,3bS,7S,9aR,9bS,11aS)-9a,11a-dimethyl-1-[(2S)-1-[(6-methylpyridin-2-yl)oxy]propan-2-yl]-1H,2H,3H,3aH,3bH,4H,6H,7H,8H,9H,9aH,9bH,10H,11H,11aH-cyclopenta[a]phenanthren-7-ol], for which the IC50 lay within 250 to 1000 nM.
The figure for `C[C@H](CCc1ncccc1C(C)(C)O)[C@H]1CC[C@H]2[C@@H]3CC=C4C[C@@H](O)CC[C@]4(C)[C@H]3CC[C@]12C` [Example 456, (3S,8S,9S,10R,13R,14S,17R)-17-((R)-4-(3-(2-hydroxypropan-2-yl)pyridin-2-yl)butan-2-yl)-10,13-dimethyl-2,3,4,7,8,9,10,11,12,13,14,15,16,17-tetradecahydro-1H-cyclopenta[a]phenanthren-3-ol] is below 250 nM; for `Cc1cccnc1OC[C@@H](C)[C@H]1CC[C@H]2[C@@H]3CC=C4C[C@@H](O)CC[C@]4(C)[C@H]3CC[C@]12C` [Example 443, (3S,8S,9S,10R,13S,14S,17R)-10,13-dimethyl-17-((S)-1-((3-methylpyridin-2-yl)oxy)propan-2-yl)-2,3,4,7,8,9,10,11,12,13,14,15,16,17-tetradecahydro-1H-cyclopenta[a]phenanthren-3-ol] it is below 250 nM; for `C[C@H](Oc1cccnc1CO)[C@H]1CC[C@H]2[C@@H]3CC=C4C[C@@H](O)CC[C@]4(C)[C@H]3CC[C@]12C` [Example 270, (3S,8S,9S,10R,13S,14S,17S)-17-((S)-1-((2-(hydroxymethyl)pyridin-3-yl)oxy)ethyl)-10,13-dim ethyl-2,3,4,7,8,9,10,11,12,13,14,15,16,17-tetradecahydro-1H-cyclopenta[a]phenanthren-3-ol] it is 250 to 1000 nM.
The figure for `C[C@H](CCC(=O)N1CCC(N(C)S(C)(=O)=O)CC1)[C@H]1CC[C@H]2[C@@H]3CC=C4C[C@@H](O)CC[C@]4(C)[C@H]3CC[C@]12C` [Example 415, N-{1-[(4R)-4-[(1R,3aS,3bS,7S,9aR,9bS,11aR)-7-hydroxy-9a,11a-dimethyl-1H,2H,3H,3aH,3bH,4H,6H,7H,8H,9H,9aH,9bH,10H,11H,11aH-cyclopenta[a]phenanthren-1-yl]pentanoyl]piperidin-4-yl}-N-methylmethanesulfonamide] is 250 to 1000 nM; for `COC(=O)N1CCN(C(=O)CC[C@@H](C)[C@H]2CC[C@H]3[C@@H]4CC=C5C[C@](O)(C(F)(F)F)CC[C@]5(C)[C@H]4CC[C@]23C)CC1` [Example 419, Methyl 4-((R)-4-((3S,8S,9S,10R,13R,14S,17R)-3-hydroxy-10,13-dimethyl-3-(trifluoromethyl)-2,3,4,7,8,9,10,11,12,13,14,15,16,17-tetradecahydro-1H-cyclopenta[a]phenanthren-17-yl)pentanoyl)piperazine-1-carboxylate] it is 1000 to 10000 nM.
`CC(=O)N1CCN(C(=O)CC[C@@H](C)[C@H]2CC[C@H]3[C@@H]4CC=C5C[C@@H](O)CC[C@]5(C)[C@H]4CC[C@]23C)CC1` [Example 3, (R)-1-(4-acetylpiperazin-1-yl)-4-((3S,8S,9S,10R,13R,14S,17R)-3-hydroxy-10,13-dimethyl-2,3,4,7,8,9,10,11,12,13,14,15,16,17-tetradecahydro-1H-cyclopenta[a]phenanthren-17-yl)pentan-1-one] yielded an IC50 below 250 nM.
The figure for `CNC(=O)c1cccc(OC[C@@H](C)[C@H]2CC[C@H]3[C@@H]4CC=C5C[C@@H](O)CC[C@]5(C)[C@H]4CC[C@]23C)n1` [Example 448, 6-((S)-2-((3S,8S,9S,10R,13S,14S,17R)-3-hydroxy-10,13-dimethyl-2,3,4,7,8,9,10,11,12,13,14,15,16,17-tetradecahydro-1H-cyclopenta[a]phenanthren-17-yl)propoxy)-N-methylpicolinamide] is 250 to 1000 nM; for `Cc1cccnc1CC[C@@H](C)[C@H]1CC[C@H]2[C@@H]3CC=C4C[C@@H](O)CC[C@]4(C)[C@H]3CC[C@]12C` [Example 130, (3S,8S,9S,10R,13R,14S,17R)-10,13-dimethyl-17-((R)-4-(3-methylpyridin-2-yl)butan-2-yl)-2,3,4,7,8,9,10,11,12,13,14,15,16,17-tetradecahydro-1H-cyclopenta[a]phenanthren-3-ol] it is below 250 nM.
As for `CNC(=O)c1cncc(O[C@@H](C)[C@H]2CC[C@H]3[C@@H]4CC=C5C[C@@H](O)CC[C@]5(C)[C@H]4CC[C@]23C)c1` [Example 266, 5-((S)-1-((3S,8S,9S,10R,13S,14S,17S)-3-hydroxy-10,13-dimethyl-2,3,4,7,8,9,10,11,12,13,14,15,16,17-tetradecahydro-1H-cyclopenta[a]phenanthren-17-yl)ethoxy)-N-methylnicotinamide], the figure is 250 to 1000 nM.
The figure for `CNC(=O)NC[C@@H](C)[C@H]1CC[C@H]2[C@@H]3CC=C4C[C@@H](O)CC[C@]4(C)[C@H]3CC[C@]12C` [Example 464, 1-((S)-2-((3S,8S,9S,10R,13S,14S,17R)-3-hydroxy-10,13-dimethyl-2,3,4,7,8,9,10,11,12,13,14,15,16,17-tetradecahydro-1H-cyclopenta[a]phenanthren-17-yl)propyl)-3-methylurea] is 250 to 1000 nM; for `C[C@H](CCC(=O)N1CC[C@H](NS(C)(=O)=O)C1)[C@H]1CC[C@H]2[C@@H]3CC=C4C[C@@H](O)CC[C@]4(C)[C@H]3CC[C@]12C` [Example 535, N—((S)-1-((R)-4-((3S,8S,9S,10R,13R,14S,17R)-3-hydroxy-10,13-dimethyl-2,3,4,7,8,9,10,11,12,13,14,15,16,17-tetradecahydro-1H-cyclopenta[a]phenanthren-17-yl)pentanoyl)pyrrolidin-3-yl)methanesulfonamide] it is 250 to 1000 nM; for `CC#CC1(O)CCN(C(=O)CC[C@@H](C)[C@H]2CC[C@H]3[C@@H]4CC=C5C[C@@H](O)CC[C@]5(C)[C@H]4CC[C@]23C)CC1` [Example 90, (R)-4-((3S,8S,9S,10R,13R,14S,17R)-3-hydroxy-10,13-dimethyl-2,3,4,7,8,9,10,11,12,13,14,15,16,17-tetradecahydro-1H-cyclopenta[a]phenanthren-17-yl)-1-(4-hydroxy-4-(prop-1-yn-1-yl)piperidin-1-yl)pentan-1-one] it is below 250 nM.
With `CCCCC1(O)CCN(C(=O)CC[C@@H](C)[C@H]2CC[C@H]3[C@@H]4CC=C5C[C@@H](O)CC[C@]5(C)[C@H]4CC[C@]23C)CC1` [Example 92, (R)-1-(4-butyl-4-hydroxypiperidin-1-yl)-4-((3S,8S,9S,10R,13R,14S,17R)-3-hydroxy-10,13-dimethyl-2,3,4,7,8,9,10,11,12,13,14,15,16,17-tetradecahydro-1H-cyclopenta[a]phenanthren-17-yl)pentan-1-one], the IC50 was below 250 nM.
The figure for `C[C@H](CCC(=O)N1CCC[C@H](Oc2ccncc2)C1)[C@H]1CC[C@H]2[C@@H]3CC=C4C[C@@H](O)CC[C@]4(C)[C@H]3CC[C@]12C` [Example 520, (R)-4-((3S,8S,9S,10R,13R,14S,17R)-3-hydroxy-10,13-dimethyl-2,3,4,7,8,9,10,11,12,13,14,15,16,17-tetradecahydro-1H-cyclopenta[a]phenanthren-17-yl)-1-((S)-3-(pyridin-4-yloxy)piperidin-1-yl)pentan-1-one] is below 250 nM.
